Measured values: publication PMC12471299, “Secondary Metabolites of the Marine Sponge-Derived Fungus Aspergillus subramanianii 1901NT-1.40.2 and Their Antimicrobial and Anticancer Activities” (Marine Drugs, 2025)
Where two headings read alike, the source gives them in different places.

Experiments:
[1] = tested on: HaCaT keratinocytes; test: Cell viability assay (MTT); type: cell-based, human
From the text: (§1) Rat cardiomyocyte H9c2 cells were kindly provided by Prof. Dr. Gunhild von Amsberg from the Martini-Klinik Prostate Cancer Center, University Hospital Hamburg-Eppendorf, Hamburg, Germany. The human HaCaT keratinocyte cell line was kindly provided by Prof. N. Fusenig (Cancer Research Centre, Heidelberg, Germany). Non-cancerous human breast epithelial MCF-10A cells were kindly provided by Dr. Irina Zhitnyak (N. N. Blokhin National Medical Research Center of Oncology, Moscow, Russia). Human breast cancer MCF-7 HTB-22 and MDA-MB-231 cells were obtained from the ATTC (Manassas, VA, USA).
(§2) H9c2 and HaCaT cells were cultured in DMEM with 10% fetal bovine serum and 1% penicillin/streptomycin (BioloT, St. Petersburg, Russia). MCF-7 and MDA-MB-231 cells were cultured in MEM (BioloT, St. Petersburg, Russia) with 10% fetal bovine serum (FBS) and 1% penicillin/streptomycin (BioloT, St. Petersburg, Russia). MCF 10A cells were cultured in DMEM F12 medium (BioloT, St. Petersburg, Russia) supplemented with 20% FBS, 20 ng/mL hrEGF (Sci-Store, Moscow, Russia), and 1% penicillin/streptomycin (BioloT, St. Petersburg, Russia). All cells were cultured at 37 °C in a humidified atmosphere containing 5% CO2.
(§3) H9c2 cells were seeded at a concentration of 3 × 10^3 cells/well. MCF-10A, MCF-7, and MDA-MB-231 cells were seeded at 5 × 10^3 cells/well, and HaCaT cells were seeded at 1 × 10^4 cells/well. The experiments were initiated after 24 h.
(§4) Compounds at concentrations up to 100 µM were added to the wells for 24h or 48 h, and the viability of the cells was measured using an MTT (3-(4,5-dimethylthiazol-2-yl)-2,5-diphenyltetrazolium bromide) assay, which was performed according to the manufacturer’s instructions (Sigma-Aldrich, Munich, Germany). […] DMSO was used as a control. The results are presented as percentages of the control data.

[2] = tested on: MCF-10A breast epithelial cells; test: Cell viability assay (MTT); type: cell-based, human; details: MCF10A
From the text: as §1, §2, §3, §4

[3] = Cell viability assay (MTT); type: cell-based, human; details: human, read-out: Cytotoxicity IC50
From the text: as §1, §2, §3, §4

[4] = tested on: MDA-MB-231 breast cancer cells; test: Cell viability assay (MTT); type: cell-based, human
From the text: as §1, §2, §3, §4

[5] = tested on: MCF-7 breast cancer cells; test: Cell viability assay (MTT); type: cell-based, human
From the text: as §1, §2, §3, §4

[6] = tested on: Escherichia coli VKPM (B-7935); test: Antimicrobial assay, growth inhibition (optical density); type: cell-based
Experimental: (§5) The Gram-positive bacterial Staphylococcus aureus ATCC 21027, Gram-negative bacterial Escherichia coli VKPM (B-7935), and yeast-like fungal Candida albicans KMM 455 strains were fermented on solid medium Mueller Hinton broth with agar (16.0 g/L) in a Petri dish at 37 °C for 24 h. The antimicrobial activity of the compound was tested at concentrations ranging from 100 µM and lower. The effect of the compound on bacterial growth was estimated as described by. Gentamicin and amphotericin B were used as positive controls against S. aureus, E. coli, and C. albicans, and a 1% dimethyl sulfoxide (DMSO) solution in PBS was used as a negative control. The optical density of the bacterial suspension after 18 h was measured at λ = 620 nm. The effect of the compound on biofilm formation for 18 h was tested using MTT reagent (Sigma-Aldrich, St. Louis, MO, USA) in accordance with. The optical density of the obtained solution was measured at λ = 570 nm. A Multiskan FS spectrophotometer (Thermo Scientific Inc., Beverly, MA, USA) was used for both assays. The results were calculated as percentages of the control data and presented as minimal concentrations reduced by 50% of growth or biofilm formation (MIC50).

[7] = tested on: Candida albicans KMM 455; test: as above; type: cell-based
Experimental: as §5

[8] = tested on: Staphylococcus aureus ATCC 21027; test: as above; type: cell-based
Experimental: as §5

[9] = tested on: H9c2 cardiomyocytes; test: Cell viability assay (MTT); type: cell-based, rat
From the text: as §1, §2, §3, §4

[10] = Cell viability assay (MTT); type: cell-based, rat; details: rat, H9c2 cardiomyocytes, read-out: Cytotoxicity IC50
From the text: as §1, §2, §3, §4

[11] = tested on: Escherichia coli VKPM (B-7935); test: Biofilm formation assay (MTT); type: cell-based
Experimental: as §5

[12] = tested on: Candida albicans KMM 455; test: Biofilm formation assay (MTT); type: cell-based
Experimental: as §5

[13] = tested on: Staphylococcus aureus ATCC 21027; test: Biofilm formation assay (MTT); type: cell-based
Experimental: as §5

Q: With `Cc1c(C)c(O)c2c(c1C)C(C)C(=O)OC2=O` (stereo not shown) [Compound 4, sclerin] as the molecule, how does the cell viability ([1]; 24 h, 1.0 µM) read?
A: 100.2 ± 6.6 % of control

Q: What about the cell viability ([1]; 24 h, 10.0 µM) of the same molecule?
A: 94.7 ± 5.0 % of control

Q: And the cell viability ([1]; 24 h, 100.0 µM)?
A: 49.5 ± 6.0 % of control

Q: What about the cell viability ([1]; 48 h, 1.0 µM) of the same molecule?
A: 96.4 ± 1.4 % of control

Q: And the cell viability ([1]; 48 h, 10.0 µM)?
A: 72.1 ± 11.1 % of control

Q: What about the cell viability ([1]; 48 h, 100.0 µM) of the same molecule?
A: 51.5 ± 2.1 % of control

Q: And the cell viability ([2]; 24 h, 1.0 µM)?
A: 90.8 ± 7.8 % of control

Q: What about the cell viability ([2]; 24 h, 10.0 µM) of the same molecule?
A: 88.6 ± 5.2 % of control

Q: And the cell viability ([2]; 24 h, 100.0 µM)?
A: 47.0 ± 3.2 % of control

Q: What about the cell viability ([2]; 48 h, 1.0 µM) of the same molecule?
A: 98.0 ± 4.0 % of control

Q: And the cell viability ([2]; 48 h, 10.0 µM)?
A: 96.8 ± 2.1 % of control

Q: What about the cell viability ([2]; 48 h, 100.0 µM) of the same molecule?
A: 73.5 ± 1.1 % of control

Q: What about the IC50 at 24 h ([3]; HaCaT keratinocytes, 24 h) of the same molecule?
A: ≥ 100 µM

Q: What about the IC50 at 48 h ([3]; HaCaT keratinocytes, 48 h) of the same molecule?
A: ≥ 100 µM

Q: And the IC50 at 24 h ([3]; MCF-7 breast cancer cells, MCF-7, 24 h)?
A: > 100 µM

Q: And the IC50 at 48 h ([3]; MCF-7 breast cancer cells, MCF-7, 48 h)?
A: > 100 µM

Q: And the IC50 at 24 h ([3]; MCF-10A breast epithelial cells, MCF10A, 24 h)?
A: 93.4 ± 3.5 µM

Q: What about the IC50 at 48 h ([3]; MCF-10A breast epithelial cells, MCF10A, 48 h) of the same molecule?
A: > 100 µM

Q: And the IC50 at 24 h ([3]; MDA-MB-231 breast cancer cells, MDA-MB-231, 24 h)?
A: > 100 µM

Q: What about the IC50 at 48 h ([3]; MDA-MB-231 breast cancer cells, MDA-MB-231, 48 h) of the same molecule?
A: 94.1 ± 3.2 µM

Q: And the cell viability ([4]; MDA-MB-231, 24 h, 1.0 µM)?
A: 94.8 ± 4.2 % of control

Q: And the cell viability ([4]; MDA-MB-231, 24 h, 10.0 µM)?
A: 102.7 ± 4.9 % of control

Q: And the cell viability ([4]; MDA-MB-231, 24 h, 100.0 µM)?
A: 63.1 ±1.6 % of control

Q: And the cell viability ([4]; MDA-MB-231, 48 h, 1.0 µM)?
A: 94.3 ± 3.9 % of control

Q: What about the cell viability ([4]; MDA-MB-231, 48 h, 10.0 µM) of the same molecule?
A: 91.8 ± 7.5 % of control

Q: And the cell viability ([4]; MDA-MB-231, 48 h, 100.0 µM)?
A: 47.1 ± 6.2 % of control

Q: And the cell viability ([5]; MCF-7, 24 h, 1.0 µM)?
A: 104.3 ± 4.6 % of control

Q: And the cell viability ([5]; MCF-7, 24 h, 10.0 µM)?
A: 103.4 ± 5.4 % of control

Q: What about the cell viability ([5]; MCF-7, 24 h, 100.0 µM) of the same molecule?
A: 68.3 ± 4.5 % of control

Q: What about the cell viability ([5]; MCF-7, 48 h, 1.0 µM) of the same molecule?
A: 88.5 ± 4.7 % of control

Q: And the cell viability ([5]; MCF-7, 48 h, 10.0 µM)?
A: 95.9 ± 3.5 % of control

Q: And the cell viability ([5]; MCF-7, 48 h, 100.0 µM)?
A: 74.1 ± 4.5 % of control

Q: And the MIC50 ([6]; Escherichia coli, 18 h, E. coli)?
A: > 100 µM

Q: And the “effect on E. coli growth” value ([6]; at / up to 100 µM)?
A: did not affect

Q: What about the MIC50 ([7]; Candida albicans, KMM455, 18 h, C. albicans, 18 h) of the same molecule?
A: > 100 µM

Q: What about the “effect on C. albicans growth” value ([7]; at / up to 100 µM) of the same molecule?
A: did not affect

Q: And the MIC50 ([8]; Staphylococcus aureus, ATCC21027, 18 h, S. aureus, 18 h)?
A: > 100 µM

Q: What about the “effect on S. aureus growth” value ([8]; at / up to 100 µM) of the same molecule?
A: did not affect

Q: What about the cell viability ([9]; H9c2, 24 h, 1.0 µM) of the same molecule?
A: 101.9 ± 5.8 % of control

Q: And the cell viability ([9]; H9c2, 24 h, 10.0 µM)?
A: 101.9 ± 6.1 % of control

Q: And the cell viability ([9]; H9c2, 24 h, 100.0 µM)?
A: 73.5 ± 4.4 % of control

Q: And the cell viability ([9]; H9c2, 48 h, 1.0 µM)?
A: 101.4 ± 5.6 % of control

Q: What about the cell viability ([9]; H9c2, 48 h, 10.0 µM) of the same molecule?
A: 102.6 ± 7.4 % of control

Q: And the cell viability ([9]; H9c2, 48 h, 100.0 µM)?
A: 56.2 ± 0.9 % of control

Q: And the IC50 at 24 h ([10]; H9c2, 24 h)?
A: > 100 µM

Q: What about the IC50 at 48 h ([10]; H9c2, 48 h) of the same molecule?
A: 57.2 ± 2.4 µM

Q: And the “Biofilm formation, MIC50” value ([11]; E. coli, 18 h)?
A: >100 µM

Q: And the “effect on E. coli biofilm formation” value ([11]; at / up to 100 µM)?
A: did not affect

Q: And the “Biofilm formation, MIC50” value ([12]; C. albicans, 18 h)?
A: >100 µM

Q: What about the “prevention of C. albicans biofilm formation” value ([12]; at 100 µM) of the same molecule?
A: 20.22 ± 5.24%

Q: What about the “Biofilm formation, MIC50” value ([13]; S. aureus, 18 h) of the same molecule?
A: >100 µM

Q: What about the “effect on S. aureus biofilm formation” value ([13]; at / up to 100 µM) of the same molecule?
A: did not affect
